Measured values: ChEMBL document CHEMBL1134060, “Synthesis and evaluation of hexahydrochrysene and tetrahydrobenzofluorene ligands for the estrogen receptor” (Bioorg Med Chem Lett, 2001)

How the values were obtained:
[1] = biological target: Estrogen receptor beta (Homo sapiens) (UniProt Q92731); assay: Relative binding affinity for human Estrogen receptor beta compared to estradiol (E2)
[2] = biological target: Estrogen receptor beta (Homo sapiens) (UniProt Q92731); assay: Antagonistic effect on 1 nM estradiol induced transcriptional activation in HEC-1 cells expressing estrogen receptor beta at 10e-9 M; assay type: functional, cell-based
[3] = biological target: Estrogen receptor beta (Homo sapiens) (UniProt Q92731); assay: Antagonistic effect on 1 nM estradiol induced transcriptional activation in HEC-1 cells expressing estrogen receptor beta at 10e-7 M; assay type: functional, cell-based
[4] = biological target: T1, Estrogen receptor (Homo sapiens) (UniProt P03372); assay: Antagonistic effect on 1 nM estradiol induced transcriptional activation in HEC-1 cells expressing estrogen receptor alpha at 10e-6 M; assay type: functional, cell-based
T1 sequence (whole entry): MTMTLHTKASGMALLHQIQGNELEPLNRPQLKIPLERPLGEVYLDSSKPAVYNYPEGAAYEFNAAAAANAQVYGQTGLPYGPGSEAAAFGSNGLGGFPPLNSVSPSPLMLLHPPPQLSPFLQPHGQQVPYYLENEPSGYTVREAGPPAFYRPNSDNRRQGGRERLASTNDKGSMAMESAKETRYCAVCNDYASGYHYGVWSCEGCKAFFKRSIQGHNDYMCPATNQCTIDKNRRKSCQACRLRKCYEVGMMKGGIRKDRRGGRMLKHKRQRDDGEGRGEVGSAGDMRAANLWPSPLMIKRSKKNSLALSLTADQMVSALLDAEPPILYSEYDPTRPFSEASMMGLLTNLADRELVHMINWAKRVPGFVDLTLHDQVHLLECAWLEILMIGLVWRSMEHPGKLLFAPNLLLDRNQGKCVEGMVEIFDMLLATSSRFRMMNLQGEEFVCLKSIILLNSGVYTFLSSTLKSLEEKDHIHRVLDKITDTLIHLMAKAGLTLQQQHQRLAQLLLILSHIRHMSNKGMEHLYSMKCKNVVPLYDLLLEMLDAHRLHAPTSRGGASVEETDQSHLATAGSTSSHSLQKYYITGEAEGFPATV

[5] = biological target: Estrogen receptor beta (Homo sapiens) (UniProt Q92731); assay: Antagonistic effect on 1 nM estradiol induced transcriptional activation in HEC-1 cells expressing estrogen receptor beta at 10e-8 M; assay type: functional, cell-based
[6] = biological target: T1, Estrogen receptor (Homo sapiens); assay: Antagonistic effect on 1 nM estradiol induced transcriptional activation in HEC-1 cells expressing estrogen receptor alpha at 10e-7 M; assay type: functional, cell-based
[7] = biological target: Estrogen receptor beta (Homo sapiens) (UniProt Q92731); assay: Transcriptional activation in human endometrial carcinoma (HEC-1) cells expressing estrogen receptor beta at 10e-6 M; assay type: functional
[8] = biological target: Estrogen receptor beta (Homo sapiens) (UniProt Q92731); assay: Antagonistic effect on 1 nM estradiol induced transcriptional activation in HEC-1 cells expressing estrogen receptor beta at 10e-6 M; assay type: functional, cell-based
[9] = biological target: Estrogen receptor beta (Homo sapiens) (UniProt Q92731); assay: Transcriptional activation in human endometrial carcinoma (HEC-1) cells expressing estrogen receptor beta at 10e-9 M; assay type: functional

Estrogen receptor beta (Homo sapiens), sequence (Q92731 whole entry): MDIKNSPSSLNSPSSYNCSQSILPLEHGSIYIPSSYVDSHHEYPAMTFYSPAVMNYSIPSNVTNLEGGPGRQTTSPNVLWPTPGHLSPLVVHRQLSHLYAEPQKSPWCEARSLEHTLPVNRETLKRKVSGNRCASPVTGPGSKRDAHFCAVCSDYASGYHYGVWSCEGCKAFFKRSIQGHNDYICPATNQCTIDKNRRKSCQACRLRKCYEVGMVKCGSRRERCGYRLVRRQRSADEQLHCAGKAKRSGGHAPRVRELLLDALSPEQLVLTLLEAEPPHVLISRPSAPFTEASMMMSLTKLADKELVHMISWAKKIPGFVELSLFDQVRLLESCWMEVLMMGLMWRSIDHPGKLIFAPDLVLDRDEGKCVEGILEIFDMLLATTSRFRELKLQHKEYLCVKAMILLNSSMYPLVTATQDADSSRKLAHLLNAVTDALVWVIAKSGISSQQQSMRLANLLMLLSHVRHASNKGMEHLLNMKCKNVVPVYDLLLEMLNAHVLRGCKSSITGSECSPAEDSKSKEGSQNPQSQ

Row | SMILES | RBA [1] [%] | other results
1 | CCC1Cc2cc(O)ccc2C2C(CC)Cc3cc(O)ccc3C12 (stereo unspecified) | 16 | –
2 | O=C1c2cc(O)ccc2[C@H]2CCc3cc(O)ccc3[C@@H]12 | 2 | –
3 | Oc1ccc2c(c1)CCC1=C2CCc2cc(O)ccc21 | 6.5 | –
4 | Oc1ccc2c(c1)CC[C@@H]1c3ccc(O)cc3C[C@H](c3ccc(OCCN4CCCCC4)cc3)[C@H]21 | 0.06 | Response [2]: 5%; Response [3]: 104%; Response [4]: 25%; Response [5]: 105%
5 | CCC1c2cc(O)ccc2[C@H]2CCc3cc(O)ccc3[C@@H]12 (stereo in doubt; 17b) | 280 | –
6 | CC[C@@H]1Cc2cc(O)ccc2C2=C1c1ccc(O)cc1C[C@H]2CC | 144 | –
7 | CCC1c2cc(O)ccc2[C@H]2CCc3cc(O)ccc3[C@@H]12 (stereo in doubt; 17a) | 300 | –
8 | Oc1ccc2c(c1)CC[C@@H]1c3ccc(O)cc3[C@H](c3ccc(OCCN4CCCCC4)cc3)[C@H]21 | 10 | Response [6]: 10%; Response [7]: 5%; Response [8]: 5%; Response [3]: 15%; Response [9]: 70%; Response [5]: 30%
9 | Oc1ccc2c(c1)C[C@@H]1c3ccc(O)cc3CC[C@H]21 | 63 | –
10 | Oc1ccc2c(c1)CC[C@@H]1c3ccc(O)cc3CC[C@H]21 | 71 | –
11 | Oc1ccc2c(c1)CC[C@H]1c3ccc(O)cc3CC[C@@H]21 | 130 | –
